Experimental data as given in PubChem BioAssay AID1996.
Converted amounts (≈) assume the structure as drawn.

Conditions: buffer; pH 7.4; 200.0 µM

solubility kinetic [µg/mL] | Structure (SMILES)
0.3 (≈ 1.04 µM) | COc1cccc(NC(=S)Nc2cc(C)cc(C)n2)c1
33.9 | Cl.Fc1ccc(-c2ccc(CNCc3ccccn3)o2)cc1
> 59.8 | O=S(=O)(Nc1cccc(S(=O)(=O)N2CCCCC2)c1)c1ccccc1F
11 (≈ 31.8 µM) | CC(=O)c1c(C)nc(-c2ccccc2)nc1NC(=O)Cc1ccccc1
> 33.2 | CC(C)[C@H](NC(=O)c1ccccc1)C(=O)O
18.1 (≈ 46.5 µM) | O=C(c1ccco1)N1CCN(S(=O)(=O)c2cc(Cl)ccc2Cl)CC1
> 35.6 | COC(CNc1ncnc2c1cnn2C)OC
11.9 (≈ 32.7 µM) | CCOC(=O)C(c1ccccc1)C(Nc1ccc(F)cc1)c1ccccn1 (configuration not stated)
> 45.2 | O=C(Cn1c(CO)nc2ccccc21)NC1CCCCCC1
< 0.3 | FC(F)(F)c1cccc(OCc2noc(-c3ccsc3)n2)c1
> 45.2 | COc1ccc(N2CCN(C(=O)Cn3cncn3)CC2)cc1
> 50.5 | O=C(c1ccccc1)N1CCN(S(=O)(=O)c2cccs2)CC1
< 0.4 | COc1cc(NC(=O)c2ccccc2)c(OC)cc1NC(=O)Cc1ccc(F)cc1
> 42.2 | O=C(O)c1cccc(CN2C(=O)c3ccccc3C2=O)c1
> 50.4 | COc1ccc(OC)c(C(=O)COC(=O)c2cccnc2Cl)c1
2.1 (≈ 5.95 µM) | O=C(NCCOc1ccccc1F)Nc1ccc(Br)cc1
44.4 (≈ 137 µM) | Cc1c(C(=O)c2ccc(F)cc2F)c2ccccn2c1CCC#N
1.4 (≈ 4.23 µM) | O=c1oc2ccccc2c(NCc2ccc(Cl)cc2)c1[N+](=O)[O-]
> 32.3 | O=C(O)CCCC(=O)Nc1nncs1
< 0.4 | O=C(Nc1ccccc1)Nc1scc2c1c(=O)oc1ccccc12
26.8 (≈ 106 µM) | O=C(CCCc1cccs1)Nc1nccs1
> 39.4 | N#Cc1ccncc1S(=O)c1ccc(Cl)cc1 (configuration not stated)
28.8 (≈ 101 µM) | Cc1cc(OCC(=O)N(C(C)C)C(C)C)ccc1Cl
24.3 (≈ 75.4 µM) | Cc1nc(-c2cccc(S(=O)(=O)N3CCCCC3)c2)cs1

solubility kinetic [µg/mL] | Structure (SMILES)
5.5 (≈ 17.1 µM) | COc1cccc(CNC(=S)Nc2ccc(Cl)cc2C)c1
> 46.9 | COCCOC(=O)C1=C(C)NC(=S)NC1c1cccs1 (configuration not stated)
> 44.2 | S=C(NCCCn1ccnc1)Nc1cccc(Cl)c1
> 47.3 | COc1ccccc1CNC(=O)Cc1ccc(OC)c(OC)c1
> 39.2 | c1ccc2c(c1)COC(CNC1CCCCC1)OC2
42.8 (≈ 144 µM) | COc1ccc(NC(=O)COC(=O)C2CCC2)cc1Cl
17.4 (≈ 76.2 µM) | COc1ccc(CNc2cc(C)ccn2)cc1
> 44.2 | CN(C(=O)CSc1nnnn1C)C1(C#N)CCCCC1
< 0.2 | COc1ccc(-c2c(C#N)c(N)nc(Sc3ccc(Cl)cc3)c2C#N)cc1
> 55.9 | CCc1sc(NC(=O)CN2CCC(C(N)=O)CC2)nc1-c1ccccc1
> 45.1 | CCNC(=O)COC(=O)c1cc(C)n(-c2ccccc2)c1C
> 60.4 | COc1ccc(NS(=O)(=O)c2cc(C(=O)N3CCCCCC3)ccc2C)cc1
> 39.5 | CCCN1CNC(=S)N(c2ccc(C)cc2C)C1
38.4 (≈ 142 µM) | CCc1cc(S(N)(=O)=O)cc(CC)c1NC(C)=O
1.5 (≈ 5.11 µM) | COc1ccc(NC(=O)c2cc3ccccc3cc2O)cc1
11.5 (≈ 37.8 µM) | Cc1ccc(S(=O)(=O)CC(=O)Nc2cccc(C)n2)cc1
30.4 (≈ 129 µM) | O=C1CNC(=S)N1CCOc1ccccc1
2.1 (≈ 7.83 µM) | O=C(c1cccc([N+](=O)[O-])c1)N1CCc2ccccc21
35.4 (≈ 120 µM) | Cc1ccc(CN(Cc2ccco2)C(=O)c2ccco2)cc1
4.6 (≈ 13.3 µM) | COc1ccccc1OCC(=O)Nc1sc2c(c1C(N)=O)CCC2
> 46.4 | O=c1c([N+](=O)[O-])cccn1Cc1cccc(Br)c1
> 46.1 | COc1ccccc1C(=O)NCCC(=O)NC1=NCCS1
3.9 (≈ 10.7 µM) | COc1ccc(C(=O)NCCSCc2ccc(Cl)cc2)cc1OC
> 32.3 | Nn1c(C2CCC2)nc2ccccc2c1=O

solubility kinetic [µg/mL] | Structure (SMILES)
< 0.2 | O=C(Nc1ccc2ccccc2n1)Nc1ccccc1F
20.3 (≈ 57.3 µM) | COc1cc2[nH]c(C(=O)NCCc3ccccc3)cc2c(OC)c1OC
16.2 (≈ 31.3 µM) | Cc1cc(OCC(=O)OCC(=O)Nc2cc(S(=O)(=O)N3CCOCC3)ccc2Cl)ccc1Cl
33.4 (≈ 124 µM) | Cc1ccc(CC(=O)NCC(O)c2ccccc2)cc1 (configuration not stated)
32.5 (≈ 140 µM) | O=C(NC1CCCCCCC1)c1cccnc1
> 44.3 | CCOC(=O)/C(=C\c1ccccc1)NC(=O)c1ccccc1
52.2 (≈ 129 µM) | NC(N)=NCCCC(NC(=O)c1ccccc1)C(=O)Nc1ccc2ccccc2c1 (configuration not stated)
0.6 (≈ 1.73 µM) | CC1=C(C(=O)OCC2CCCCC2)C(c2ccccc2F)NC(=O)N1 (configuration not stated)
9.6 (≈ 23.8 µM) | COc1ccccc1NS(=O)(=O)c1cc(C(=O)N2CCCCCC2)ccc1C
37.1 (≈ 119 µM) | O=C(OCCN1C(=O)c2ccccc2C1=O)Oc1ccccc1
> 46.8 | Cc1cn(C2CC(OC(=O)C(C)C)C(CO)O2)c(=O)[nH]c1=O (configuration not stated)
< 0.5 | Cc1cccc2c3c([nH]c12)C(=O)CC(C)(C)S3
4.7 (≈ 16.7 µM) | Cc1ccc(NC(=O)C2Cc3ccccc3C(=O)O2)cc1 (configuration not stated)
48.8 (≈ 150 µM) | COC(=O)CC1C(=O)NCCN1C(=O)Nc1cccc(Cl)c1 (configuration not stated)
> 40.6 | COC(=O)[C@H](CC(C)C)NC(=O)N1CCCCC1C (some centres not stated)
6.5 (≈ 20.5 µM) | CC(C)CN=Cc1c(O)c([N+](=O)[O-])cc2oc3c(c12)CCCC3
> 38.2 | Cc1cc(Cc2cc(C)c(N)cc2C)c(C)cc1N
11 (≈ 34 µM) | CCC(=O)Nc1cc(-c2cc3ccccc3oc2=O)ccc1OC
37.7 (≈ 133 µM) | N#C/C(=C\c1ccccc1Cl)C(=O)Nc1ccccn1
> 55.9 | COc1ccc2[nH]c(C(=O)N(Cc3ccccn3)Cc3ccccn3)cc2c1
> 46.6 | Cc1nnc(SCC(=O)NC2CCCCCC2)n1C(C)C
44.7 (≈ 144 µM) | O=C(Nc1ccc(Cl)cc1N1CCOCC1)C1CCCO1 (configuration not stated)
> 48.4 | CCOc1ccc(NC(=O)CN2C(=O)CSC(C)C2=O)cc1 (configuration not stated)

Second part, the compound before the results:

Structure (SMILES) | solubility kinetic [µg/mL]
O=C(CN1CCC(c2nc3ccccc3s2)CC1)N1CCCCC1 | > 51.5
CCOc1ccc(S(=O)(=O)N2CCCCC2)cc1NC(=O)c1cccnc1OCC | 1.2 (≈ 2.77 µM)
Cc1onc(-c2c(F)cccc2Cl)c1C(O)c1ccc(F)cc1 (configuration not stated) | > 50.4
COc1ccc2cc(C(=O)NCCc3ccccc3)[nH]c2c1 | < 0.3
Cc1ccc(NS(=O)(=O)c2cccs2)c(C)c1 | 39.1 (≈ 146 µM)
COc1ccc2nc(NC(=O)c3ccccc3F)sc2c1 | 0.5 (≈ 1.65 µM)
CCc1nc2ccc(Cc3ccc4nc(CC)[nH]c4c3)cc2[nH]1 | > 45.7
Cc1ccccc1Sc1ccc(N)cn1 | 31.4 (≈ 145 µM)
Cn1c(SCC(=O)NC2CCCC2)nnc1-c1ccncc1 | > 47.6
CC(C)C(NC(=O)c1ccccc1)C(=O)NCCc1ccccc1 (configuration not stated) | 9.4 (≈ 29 µM)
O=C(c1ccc(F)c(F)c1)N1CCCc2ccccc21 | 37.9 (≈ 139 µM)
CS(=O)(=O)N1CCN=C1SCc1ccc(F)cc1 | > 43.3
CCc1c(C(=O)N2CCCN(C)CC2)csc1C | > 40
O=C(COC(=O)c1cc2ccccc2cc1O)NC1CCCCC1 | 5.9 (≈ 18 µM)
N/C(CCS(=O)(=O)c1ccc(Cl)cc1)=N\OC(=O)c1ccccc1Cl | 41.6 (≈ 104 µM)
COc1ccc(NC(=O)CN2CCN(Cc3ccccc3)CC2)cc1 | > 50.9
CC(C)(C)C(=O)O/N=C(\N)c1ccc(Br)cc1 | 30.3 (≈ 101 µM)
C=CCNC(=S)NNC(=O)C(CC(C)C)CC(C)O (configuration not stated) | > 43.1
Cc1ccc2c(CN3CCC(C(N)=O)CC3)cc(=O)oc2c1C | 46.2 (≈ 147 µM)
CC(=O)c1ccc(OCC(=O)Nc2ccccc2N2CCCC2)cc1 | 44.4 (≈ 131 µM)
CCOc1ccc(NC(=O)Nc2ccc3c(c2)CCC3)cc1 | < 0.3
Cc1nc(=O)c(-c2ccccc2)c(C)n1-c1ccccc1 | > 41.5
Cc1ccsc1CNC12CC3CC(CC(C3)C1)C2.Cl | 38.1
CCC(c1ccc(C)cc1)N1C(=O)C2C3CCC(O3)C2C1=O (configuration not stated) | 41.1 (≈ 137 µM)
O=[N+]([O-])c1ccc(S(=O)(=O)Nc2ccccn2)cc1 | > 41.9
CCOC(=O)c1cnc(-c2ccccc2)nc1C(F)(F)F | < 0.3

Structure (SMILES) | solubility kinetic [µg/mL]
O=C(COC(=O)Cc1ccccc1[N+](=O)[O-])NCC1CCCCC1 | 10.8 (≈ 32.3 µM)
O=C(COC(=O)C1(c2ccccc2)CCCC1)N1CCNC1=O | > 47.5
Cc1ccc(NC(=O)NCc2ccccn2)cc1Cl | > 41.4
O=C(CN1C(=O)C(=O)c2ccccc21)c1ccccc1 | 33.8 (≈ 127 µM)
O=C(Nc1ccccc1)c1ccco1 | > 28.1
CCc1ccc(C)c(OC(=O)c2cncc(Br)c2)c1 | 2.1 (≈ 6.56 µM)
CC(=O)Nc1ccc(N/C=C/C(=O)c2ccc(Br)cc2)cc1 | 1 (≈ 2.78 µM)
N#Cc1ccccc1/C=C/C(=O)N1CCOCC1 | > 36.3
CN(C)C(=O)Oc1cccc([N+](C)(C)C)c1.[Br-] | > 45.5
Cc1noc(C)c1C(=O)Nc1nc2ccc(F)cc2s1 | 22.2 (≈ 76.2 µM)
O=C(CSc1nc2cc(Cl)ccc2s1)NCC1CCCO1 (configuration not stated) | > 51.4
COc1ccccc1OCCNC(=O)Nc1ccc(Br)cc1 | 1.3 (≈ 3.56 µM)
Cc1cc(Cl)nc(SCC(=O)c2ccccc2)n1 | 29.3 (≈ 105 µM)
COc1ccccc1-n1c(-c2ccccc2)nc2ccccc2c1=O | > 49.3
CC(CNC(=O)c1ccc2c(c1)OCO2)c1ccc([N+](=O)[O-])cc1 (configuration not stated) | 2 (≈ 6.09 µM)
Cc1cccc(-n2c(-c3ccccc3)nc3ccccc3c2=O)n1 | > 47
CN(CC(=O)Nc1ccccc1Cl)C(=O)COC(=O)c1ccc(-c2ccc(O)cc2)cc1 | 3.2 (≈ 7.07 µM)
COc1ccc(C=O)cc1CN1C(=O)c2ccccc2C1=O | 36.8 (≈ 125 µM)
COC(=O)c1ccc(NC(=O)Nc2ccc(OC)cc2)cc1 | 1.4 (≈ 4.66 µM)
COc1cccc(CC(=O)Nc2ccc(S(=O)(=O)Nc3nccs3)cc2)c1 | > 60.5
Cc1ccnc(NC(=O)c2cccc(S(=O)(=O)Nc3ccc(C)cc3C)c2)c1 | 10.7 (≈ 27.1 µM)
O=C(Nc1cccc(S(=O)(=O)N2CCCCCC2)c1)c1ccc(Cl)nc1 | 8.2 (≈ 20.8 µM)
CN1CC(C(=O)c2ccc(Cl)cc2)C(c2ccc(N(C)C)cc2)C1 (configuration not stated) | 47.1 (≈ 137 µM)
NC(=O)c1ccccc1OC1CCC1 | > 28.7
Fc1cccc(NC(=S)NC2CCCCCCC2)c1 | 2.9 (≈ 10.3 µM)
